# According to patent publication US8871252B2, “pH-responsive liposome” (Nanotheta Co, Ltd., priority 2009, dated 2014):
# How the values were obtained:
# [1] = Release behavior of citric acid from liposomes in a weakly basic environment (pH meter); format: physicochemical; conditions: after pH of the mixture changed to 7.5 to 8.5 with sodium hydroxide
# Experimental: The release behavior of citric acid from liposomes was studied in a weakly basic environment. First, to an aqueous liquid of citric acid having liposomes dispersed therein ([lipid]=250 μM, 4 mL) or an aqueous solution of citric acid (30 mM, pH 2.2, 4 mL), 2M aqueous sodium hydroxide (170 μL) was added to adjust the pH of the mixture to 6.5. Then, 300 mM aqueous sodium hydroxide (60 μL) was added to change the pH of the mixture to 7.5 to 8.5. The subsequent pH change behavior was monitored over time with a pH meter.
# [2] = pH change behavior of citric acid-loaded liposomes added to aqueous sodium hydroxide; format: physicochemical; conditions: upon addition to 4 mL of 300 μM aqueous sodium hydroxide (pH 10.5)
# Experimental: Each lipid mixture (20 mg) was hydrated in 20 mM citric acid (pH 2.2), and the dispersion was subjected to extrusion (final pore size: 0.22 μm) to prepare liposomes having a particle size of 200 to 300 nm. When required, pH change behavior was measured with a pH meter immediately after addition of the liposome dispersion ([lipid]=55 mg/mL, 10 μL) or citric acid (20 mM, 10 μL) to 4 mL of 300 μM aqueous sodium hydroxide (pH 10.5).
smiles,measurement,setting,value
O=C(O)CC(O)(CC(=O)O)C(=O)O [citric acid],nearly constant pH reached,[1],~7
same,pH reached (sudden decrease),[2],7.0
